Reference: patent US9856279B2 (AGIOS PHARMACEUTICALS, INC, priority 2011, dated 2018)
Read-outs that look alike come from different tables or passages of the source.

How the values were obtained:
IDH1 R132H = IDH1 R132H (Homo sapiens, UniProt O75874, R132H); experiment: Assay for IDH1 R132H inhibitors (NADPH/aKG, resazurin detection); assay type: biochemical; settings: enzyme assay of Example 12; read-out: IDH1R132H IC50
In short: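 Compound added to substrate mix (8 uM NADPH, 2 mM aKG), then enzyme mix (0.2 μg/ml IDH1 R132H); 50 min RT in 20 mM Tris pH 7.5, 150 mM NaCl, 10 mM MgCl2, 0.03% BSA. Resazurin detection mix (30 μM) 5 min RT; resorufin fluorescence Ex544/Em590.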

HT1080 cells = experiment: Cellular assay for IDH1m inhibitors: inhibition of 2-HG production (LC-MS, 48 hours) in HT1080 cells; assay type: cell-based; settings: Homo sapiens, HT-1080; inhibition of 2-HG production, HT1080 cells; read-out: HT1080 IC50
In short: (§1)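 The read-out is 2-HG in culture medium, measured by LC-MS after 48 h of compound exposure (0.2% DMSO) in cells plated overnight at 5000 per well in DMEM/10% FBS. IC50 is 50% reduction relative to DMSO wells. Luminescent viability (Cell Titer Glo) followed at 72 h.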

U87MG cells = experiment: Cellular assay for IDH1m inhibitors: inhibition of 2-HG production (LC-MS, 48 hours) in U87MG cells; assay type: cell-based; settings: inhibition of 2-HG production, U87R132H cells, read-out: U87R132H IC50
In short: as §1

Sequence of IDH1 R132H (O75874 whole entry R132H): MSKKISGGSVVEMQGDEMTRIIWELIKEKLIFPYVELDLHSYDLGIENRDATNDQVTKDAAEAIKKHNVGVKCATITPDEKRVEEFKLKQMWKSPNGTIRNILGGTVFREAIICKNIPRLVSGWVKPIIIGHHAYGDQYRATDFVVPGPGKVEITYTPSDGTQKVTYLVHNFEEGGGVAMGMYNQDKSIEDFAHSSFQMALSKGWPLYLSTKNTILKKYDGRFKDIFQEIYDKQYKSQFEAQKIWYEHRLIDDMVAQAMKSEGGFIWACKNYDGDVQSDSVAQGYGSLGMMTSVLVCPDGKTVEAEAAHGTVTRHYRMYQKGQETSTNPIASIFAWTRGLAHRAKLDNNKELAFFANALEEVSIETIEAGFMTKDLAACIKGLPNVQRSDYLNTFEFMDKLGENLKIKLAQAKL

| IC50 (IDH1 R132H) [nM] | IC50 (HT1080 cells) [nM] | IC50 (U87MG cells; Homo sapiens, U-87 MG) [nM] | IC50 (U87MG cells) [nM] | SMILES |
| --- | --- | --- | --- | --- |
| < 500 | < 500 | < 500 | – | C=Cc1cnnc(-c2c(C3CC3)nc(N3CCN(C(=O)C[C@H]4CCO4)[C@H](C(C)C)C3)c(C#N)c2C)c1 [Compound 793, 6-cyclopropyl-2-((R)-3-isopropyl-4-(2-((R)-oxetan-2-yl)acetyl)piperazin-1-yl)-4-methyl-5-(5-vinylpyridazin-3-yl)nicotinonitrile] |
| < 500 | 500 to 1000 | < 500 | – | COCC(=O)N1CCN(c2nc(C3CC3)c(Nc3ccnc(Cl)c3)cc2C#N)C[C@H]1C1CC1 [Compound 718, (R)-5-((2-chloropyridin-4-yl)amino)-6-cyclopropyl-2-(3-cyclopropyl-4-(2-methoxyacetyl)piperazin-1-yl)nicotinonitrile] |
| < 500 | < 500 | < 500 | – | C=Cc1cc(-c2cc(C#N)c(N3CCN(C(=O)CCO)[C@H](C4CC4)C3)nc2C2CC2)c2cnn(C)c2n1 [Compound 744, (R)-6-cyclopropyl-2-(3-cyclopropyl-4-(3-hydroxypropanoyl)piperazin-1-yl)-5-(1-methyl-6-vinyl-1H-pyrazolo[3,4-b]pyridin-4-yl)nicotinonitrile] |
| < 500 | < 500 | < 500 | – | C=CC(=O)Nc1cccc(COc2cc(C#N)c(N3CCN(C(=O)CCOC)[C@H](C)C3)nc2C2CC2)c1 [Compound 381, (R)—N-(3-((5-cyano-2-cyclopropyl-6-(4-(3-methoxypropanoyl)-3-methylpiperazin-1-yl)pyridin-3-yloxy)methyl)phenyl)acrylamide] |
| < 500 | < 500 | < 500 | – | C=Cc1cc(-c2cc(C#N)c(N3CCN(C(=O)C4CC4)[C@H](C4CC4)C3)nc2C2CC2)ncn1 [Compound 541, (R)-2-(4-(cyclopropanecarbonyl)-3-cyclopropylpiperazin-1-yl)-6-cyclopropyl-5-(6-vinylpyrimidin-4-yl)nicotinonitrile] |
| < 500 | < 500 | < 500 | – | C=Cc1ccc2ccc(-c3cc(C#N)c(N4CCN(C(=O)CCO)[C@H](C5CC5)C4)nc3C3CC3)cc2n1 [Compound 720, (R)-6-cyclopropyl-2-(3-cyclopropyl-4-(3-hydroxypropanoyl)piperazin-1-yl)-5-(2-vinylquinolin-7-yl) nicotinonitrile] |
| < 500 | 1000 to 10000 | 500 to 1000 | – | COCCC(=O)N1CCN(c2nc(C3CC3)c(-c3cccc4cnccc34)cc2C#N)CC1C(F)(F)F (stereo not drawn) [Compound 398, 6-cyclopropyl-5-(isoquinolin-5-yl)-2-(4-(3-methoxypropanoyl)-3-(trifluoromethyl)piperazin-1-yl)nicotinonitrile] |
| < 500 | < 500 | < 500 | – | C=Cc1ccnc(Nc2cc(C#N)c(N3CCN(C(=O)C[C@H]4CCO4)[C@H](C(C)C)C3)nc2C2CC2)c1 [Compound 764, 6-cyclopropyl-2-((R)-3-isopropyl-4-(2-((R)-oxetan-2-yl)acetyl)piperazin-1-yl)-5-((4-vinylpyridin-2-yl)amino)nicotinonitrile] |
| < 500 | < 500 | < 500 | – | C=Cc1cc(Nc2cc(C#N)c(N3CCN(C(=O)CCO)[C@H](C4CC4)C3)nc2C2CC2)c2ccncc2n1 [Compound 722, (R)-6-cyclopropyl-2-(3-cyclopropyl-4-(3-hydroxypropanoyl)piperazin-1-yl)-5-((2-vinyl-1,7-naphthyridin-4-yl)amino)nicotinonitrile] |
| < 500 | 500 to 1000 | 500 to 1000 | – | CCC(=O)Nc1cccc(-c2cc(C#N)c(N3CCN(C(=O)CCOC)[C@H](C)C3)nc2C2CC2)c1 [Compound 424, (R)—N-(3-(5-cyano-2-cyclopropyl-6-(4-(3-methoxypropanoyl)-3-methylpiperazin-1-yl)pyridin-3-yl)phenyl)propionamide] |
| < 500 | 500 to 1000 | 500 to 1000 | – | COCCC(=O)N1CCN(c2nc(C3CC3)c(-c3ccc(CNC(C)=O)cc3)c(C)c2C#N)C[C@H]1C [Compound 340, (R)—N-(4-{5-cyano-2-cyclopropyl-6-[4-(3-methoxy-propionyl)-3-methyl-piperazin-1-yl]-4-methyl-pyridin-3-yl}-benzyl)-acetamide] |
| < 500 | < 500 | < 500 | – | C=Cc1cc(-c2cc(C#N)c(N3CCN(C(=O)CC(F)(F)F)[C@H](C4CC4)C3)nc2C2CC2)ccn1 [Compound 498, (R)-2-cyclopropyl-6-(3-cyclopropyl-4-(3,3,3-trifluoropropanoyl)piperazin-1-yl)-2′-vinyl-3,4′-bipyridine-5-carbonitrile] |
| < 500 | 500 to 1000 | 500 to 1000 | – | COCCC(=O)N1CCN(c2nc(C3CC3)c(-c3ccc(C(N)=O)cc3)cc2C#N)C[C@H]1C [Compound 296, (R)-4-(5-cyano-2-cyclopropyl-6-(4-(3-methoxypropanoyl)-3-methylpiperazin-1-yl)pyridin-3-yl)benzamide] |
| < 500 | < 500 | < 500 | – | C=Cc1cc(-c2cc(C#N)c(N3CCN(C(=O)c4ccoc4)[C@H](C4CC4)C3)nc2C2CC2)ccn1 [Compound 546, (R)-2-cyclopropyl-6-(3-cyclopropyl-4-(furan-3-carbonyl)piperazin-1-yl)-2′-vinyl-3,4′-bipyridine-5-carbonitrile] |
| < 500 | < 500 | < 500 | – | C=Cc1nccc2ccc(-c3cc(C#N)c(N4CCN(C(=O)C5CC5)[C@H](C5CC5)C4)nc3C3CC3)cc12 [Compound 710, (R)-2-(4-(cyclopropanecarbonyl)-3-cyclopropylpiperazin-1-yl)-6-cyclopropyl-5-(1-vinylisoquinolin-7-yl)nicotinonitrile] |
| < 500 | < 500 | < 500 | – | COC[C@@H]1C[C@@H]1C(=O)N1CCN(c2nc(C3CC3)c(-c3cccc4cnccc34)cc2C#N)C[C@H]1C1CC1 [Compound 480, 6-cyclopropyl-2-((R)-3-cyclopropyl-4-((1S,2R)-2-(methoxymethyl)cyclopropanecarbonyl)piperazin-1-yl)-5-(isoquinolin-5-yl)nicotinonitrile] |
| < 500 | 1000 to 10000 | 1000 to 10000 | – | COCCC(=O)N1CCN(c2nc(C3CC3)c(OCc3cccc(OC)c3)cc2C#N)C[C@H]1C [Compound 280, (R)-6-cyclopropyl-5-(3-methoxybenzyloxy)-2-(4-(3-methoxypropanoyl)-3-methylpiperazin-1-yl)nicotinonitrile] |
| 500 to 1000 | 1000 to 10000 | 1000 to 10000 | – | COCCC(=O)N1CCN(c2nc(C3CC3)c(-c3ccc4cc(OC)ccc4c3)c(C)c2C#N)C[C@H]1C [Compound 278, (R)-6-cyclopropyl-5-(6-methoxynaphthalen-2-yl)-2-(4-(3-methoxypropanoyl)-3-methylpiperazin-1-yl)-4-methylnicotinonitrile] |
| < 500 | 500 to 1000 | – | 500 to 1000 | C=Cc1ncc2c(-c3cc(C#N)c(N4CCN(C(=O)CCO)[C@H](C5CC5)C4)nc3C3CC3)cccc2n1 [Compound 737] |
| < 500 | 1000 to 10000 | 1000 to 10000 | – | C=CS(=O)(=O)Nc1cccc(-c2cc(C#N)c(N3CCN(C(=O)C4CC4)[C@H](C4CC4)C3)nc2C2CC2)c1 [Compound 451] |
| < 500 | < 500 | < 500 | – | C=Cc1cc(-c2c(C3CC3)nc(N3CCN(C(=O)CCOC)[C@H](C4CC4)C3)c(C#N)c2C)c2ccncc2n1 [Compound 746, 6-cyclopropyl-2-((R)-3-cyclopropyl-4-(3-methoxypropanoyl)piperazin-1-yl)-4-methyl-5-(2-vinyl-1,7-naphthyridin-4-yl)nicotinonitrile] |
| < 500 | < 500 | < 500 | – | C=Cc1ccnc(Nc2cc(C#N)c(N3CCN(C(=O)CCOC)[C@H](C)C3)nc2C2CC2)c1 [Compound 647, (R)-6-cyclopropyl-2-(4-(3-methoxypropanoyl)-3-methylpiperazin-1-yl)-5-((4-vinylpyridin-2-yl)amino)nicotinonitrile] |
| < 500 | 1000 to 10000 | 1000 to 10000 | – | C/C=C/C(=O)Nc1cccc(-c2cc(C#N)c(N3CCN(C(=O)CCOC)[C@H](C)C3)nc2C2CC2)c1 [Compound 415, (R,E)-N-(3-(5-cyano-2-cyclopropyl-6-(4-(3-methoxypropanoyl)-3-methylpiperazin-1-yl)pyridin-3-yl)phenyl)but-2-enamide] |
| < 500 | 500 to 1000 | 500 to 1000 | – | COCCC(=O)N1CCN(c2nc(C3CC3)c(-c3ccc4ncccc4c3)cc2C#N)C[C@H]1C [Compound 353, (R)-6-cyclopropyl-2-[4-(3-methoxy-propionyl)-3-methyl-piperazin-1-yl]-5-quinolin-6-yl-nicotinonitrile] |
| < 500 | 1000 to 10000 | 1000 to 10000 | – | COCCC(=O)N1CCN(c2nc(C3CC3)c(Nc3ccnc4ccccc34)cc2C#N)C[C@H]1C [Compound 356, (R)-6-cyclopropyl-2-(4-(3-methoxypropanoyl)-3-methylpiperazin-1-yl)-5-(quinolin-4-ylamino)nicotinonitrile] |
| 500 to 1000 | 1000 to 10000 | 1000 to 10000 | – | COCCC(=O)N1CCN(c2nc(C3CC3)c(-c3ccccc3C#N)cc2C#N)C[C@H]1C(C)C [Compound 274, (R)-5-(2-cyanophenyl)-6-cyclopropyl-2-(3-isopropyl-4-(3-methoxypropanoyl)piperazin-1-yl)nicotinonitrile] |
